Data on one compound can be found in ChEMBL document CHEMBL5108012, “Discovery of 2,5-diphenyl-1,3,4-thiadiazole derivatives as HDAC inhibitors with DNA binding affinity” (Eur J Med Chem, 2022).

SMILES strings stand for the structures. The source made the active and inactive calls. The calls are words filed in the database; no cut-off is given here.

The target in assay [1] is T1, Protein deacetylase HDAC6 (Homo sapiens, UniProt Q9UBN7).
T1 sequence (Q9UBN7 whole entry): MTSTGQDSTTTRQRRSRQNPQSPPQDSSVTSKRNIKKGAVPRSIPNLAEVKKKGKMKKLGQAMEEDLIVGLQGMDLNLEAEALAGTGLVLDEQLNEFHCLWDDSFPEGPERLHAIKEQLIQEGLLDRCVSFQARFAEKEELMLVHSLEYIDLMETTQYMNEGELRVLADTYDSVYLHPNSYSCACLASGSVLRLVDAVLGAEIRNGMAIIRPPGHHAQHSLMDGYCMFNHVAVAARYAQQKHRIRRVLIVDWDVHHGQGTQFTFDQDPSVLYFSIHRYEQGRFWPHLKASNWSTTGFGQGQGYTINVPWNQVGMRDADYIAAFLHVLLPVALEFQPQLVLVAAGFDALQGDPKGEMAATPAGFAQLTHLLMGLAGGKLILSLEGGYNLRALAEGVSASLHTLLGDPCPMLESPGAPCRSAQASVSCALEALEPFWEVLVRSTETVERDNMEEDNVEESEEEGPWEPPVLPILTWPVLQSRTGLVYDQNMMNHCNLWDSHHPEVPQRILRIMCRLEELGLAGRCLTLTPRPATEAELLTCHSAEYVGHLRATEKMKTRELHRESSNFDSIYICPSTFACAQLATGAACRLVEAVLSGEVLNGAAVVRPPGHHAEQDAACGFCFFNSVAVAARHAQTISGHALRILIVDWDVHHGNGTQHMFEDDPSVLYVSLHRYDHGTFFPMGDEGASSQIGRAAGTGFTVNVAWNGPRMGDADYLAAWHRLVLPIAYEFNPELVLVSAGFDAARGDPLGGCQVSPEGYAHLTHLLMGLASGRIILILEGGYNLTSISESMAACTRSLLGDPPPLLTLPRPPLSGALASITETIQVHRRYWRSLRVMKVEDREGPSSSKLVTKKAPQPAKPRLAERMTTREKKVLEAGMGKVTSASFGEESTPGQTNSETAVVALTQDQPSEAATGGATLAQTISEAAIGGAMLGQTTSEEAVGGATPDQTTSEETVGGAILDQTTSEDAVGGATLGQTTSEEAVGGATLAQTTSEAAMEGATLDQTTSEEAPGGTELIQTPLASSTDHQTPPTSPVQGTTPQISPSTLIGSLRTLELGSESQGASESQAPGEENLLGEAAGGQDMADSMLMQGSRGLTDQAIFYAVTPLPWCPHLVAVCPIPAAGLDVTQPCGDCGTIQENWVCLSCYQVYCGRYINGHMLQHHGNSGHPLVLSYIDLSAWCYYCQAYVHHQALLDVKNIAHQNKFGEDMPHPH
Put plainly: Inhibition of HDAC6 in human HeLa cell nuclear extract using Boc-Lys(Ac)-AMC or Boc-Lys(triflouroacetyl)-AMC as substrate incubated for 30 mins and measured by fluorescence assay. It counts as cell-free.

For assay [2], the target named is T2, Histone deacetylase 8 (Homo sapiens, UniProt Q9BY41).
T2 sequence (Q9BY41 whole entry): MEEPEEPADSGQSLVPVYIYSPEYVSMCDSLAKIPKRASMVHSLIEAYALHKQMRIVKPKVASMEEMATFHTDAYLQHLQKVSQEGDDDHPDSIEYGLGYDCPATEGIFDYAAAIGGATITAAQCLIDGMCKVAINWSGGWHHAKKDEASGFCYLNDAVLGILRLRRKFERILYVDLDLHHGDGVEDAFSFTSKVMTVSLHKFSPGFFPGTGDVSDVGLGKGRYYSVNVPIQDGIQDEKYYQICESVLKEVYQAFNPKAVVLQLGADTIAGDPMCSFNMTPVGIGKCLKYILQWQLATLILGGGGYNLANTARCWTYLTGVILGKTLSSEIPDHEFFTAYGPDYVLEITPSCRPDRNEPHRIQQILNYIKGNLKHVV
Put plainly: Inhibition of HDAC8 in human HeLa cell nuclear extract using Boc-Lys(Ac)-AMC or Boc-Lys(triflouroacetyl)-AMC as substrate incubated for 30 mins and measured by fluorescence assay. It counts as cell-free.

Assay [3] concerns DNA. The assay can be described thus: Binding affinity to pBR322 DNA (unknown origin) at 10 to 50 uM after 30 mins by Agarose gel electrophoresis. It counts as nucleic-acid assay. The settings on record: dose 10-50 µM.
For assay [4], the system named is HCT-116. Put plainly: Antiproliferative activity against human HCT-116 cells after 48 hrs by CCK-8 assay. It counts as functional, cell-based. The settings on record: HCT-116, 48 h.
For assay [5], the system named is HepG2. Put plainly: Antiproliferative activity against human HepG2 cells after 48 hrs by CCK-8 assay. It counts as functional, cell-based. The settings on record: HepG2, 48 h.
Assay [6] relates to MC-38. Put plainly: Antiproliferative activity against mouse MC38 cells after 48 hrs by CCK-8 assay. It counts as functional, cell-based. The settings on record: MC-38, 48 h.
The test system of assay [7] is K562. Put plainly: Antiproliferative activity against human K562 cells after 48 hrs by CCK-8 assay. It counts as functional, cell-based. To be noted: K562, 48 h.
For assay [8], the system named is HEL. Put plainly: Antiproliferative activity against human HEL cells after 48 hrs by CCK-8 assay. It counts as functional, cell-based.
Assay [9] concerns HCT-116. Put plainly: Induction of apoptosis in human HCT-116 cells assessed as early apoptotic cells at 1.5 uM incubated for 48 hrs by PI and annexin V-FITC staining based flow cytometry (reference value: 3.4%). It counts as functional.
The test system of assay [10] is HCT-116. Put plainly: Induction of apoptosis in human HCT-116 cells assessed as late apoptotic cells at 1.5 uM incubated for 48 hrs by PI and annexin V-FITC staining based flow cytometry (reference value: 3.4%). It counts as functional.
Assay [11] deals with Histone deacetylase (Homo sapiens) (UniProt Q13547+O15379+Q9UBN7+Q92769+Q9UQL6+Q8WUI4+Q9BY41+Q96DB2+P56524+Q9UKV0+Q969S8). Put plainly: Inhibition of HDAC in human HCT-116 cells assessed as increase in acetylated HH3 expression expression at 0.17 to 1.5 uM incubated for 48 hrs by Western blot analysis. It counts as cell-based. The settings on record: dose 0.17-1.5 µM.
The test system of assay [12] is MC38. Put plainly: Inhibition of HDAC in mouse MC-38 cells assessed as increase in acetylated HH3 expression expression at 0.17 to 1.5 uM incubated for 48 hrs by Western blot analysis. It counts as cell-based. To be noted: dose 0.17-1.5 µM.
The test system of assay [13] is MC38. Put plainly: Inhibition of HDAC in mouse MC-38 cells assessed as increase in acetylated alpha-tubulin expression expression at 0.17 to 1.5 uM incubated for 48 hrs by Western blot analysis. It counts as cell-based. The settings on record: dose 0.17-1.5 µM.
In assay [14] the test system is MC-38. The assay can be described thus: Antitumor activity against mouse MC38 cells xenografted in C57BL/6 mouse assessed as tumor growth inhibition at 100 mg/kg, ip administered every 2 days for 16 consecutive days. It counts as functional. To be noted: MC-38, 384 h, time 16 day, read-out: TGI.
In assay [15] the test system is MC-38. Put plainly: Antitumor activity against mouse MC38 cells xenografted in C57BL/6 mouse assessed as decrease in tumor volume at 50 to 100 mg/kg, ip administered every 2 days for 16 consecutive days. It counts as functional, organism-based. The settings on record: dose 50-100 mg/kg, time 16.0 day.
Assay [16] relates to MC-38. The assay can be described thus: Antitumor activity against mouse MC38 cells xenografted in C57BL/6 mouse assessed as necrosis in tumor at 50 to 100 mg/kg, ip administered every 2 days for 16 consecutive days measured by H and E staining method. It counts as functional, organism-based. To be noted: dose 50-100 mg/kg, time 16.0 day.
Assay [17] has as its system MC-38. Put plainly: Antitumor activity against mouse MC38 cells xenografted in C57BL/6 mouse assessed as induction of apoptosis in tumor at 50 to 100 mg/kg, ip administered every 2 days for 16 consecutive days measured by TUNEL staining based assay. It counts as functional, organism-based. The settings on record: dose 50-100 mg/kg, time 16.0 day.

With `O=C(CCCCCOc1cccc(-c2nnc(-c3ccccc3)s2)c1)NO`, the IC50 in [1] worked out at 20 nM; in assay [2] it was 3030 nM; in assay [4], 470 nM; in [5], 1400 nM; in assay [6], 430 nM; in assay [7] it was 910 nM. The same compound had an IC50 in assay [8] of 280 nM. The result in [3], in [15], in assay [16] and in assay [17] was Active. Also, the Activity in [9] and in assay [10] was 38.5% throughout. For the same compound, the inhibition result in assay [11], in [12] and in [13] was “Active” in each case. Further, the inhibition in vivo at 100 mg/kg in [14] came out at 85.2%.
